Results as given in PubChem BioAssay AID1963441 (Molecular Pharmacology Branch, DTP, NCI, 2024).

System: NCI-H1876 complex spheroid growth, % test/control
Assay: Anticancer human tumor NCI-H1876 cell line growth inhibition [Asc];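 note: compound exposure lasted 7 days starting three days after seeding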;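 for viability, T/C: 100% = DMSO vehicle control wells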
Conditions: for IC50: curve of first compound; for viability, T/C: stronger effect = lower value
Outline: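 Concentration series start at each agent's clinical Cmax, or at 10 microM when none is established, and drop in half-log steps; agents are applied alone or together to complex spheroids built with HUVEC and hMSC.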

[1] = second compound 0.0316 µM, first compound 0.00316 µM
[2] = second compound 0.0316 µM, first compound 0.01 µM
[3] = second compound 0.0316 µM, first compound 0.0316 µM
[4] = second compound 0.0316 µM, first compound 0.1 µM
[5] = second compound 0.1 µM, first compound 0.00316 µM
[6] = second compound 0.1 µM, first compound 0.01 µM
[7] = second compound 0.1 µM, first compound 0.0316 µM
[8] = second compound 0.1 µM, first compound 0.1 µM
[9] = second compound 0.316 µM, first compound 0.00316 µM
[10] = second compound 0.316 µM, first compound 0.01 µM
[11] = second compound 0.316 µM, first compound 0.0316 µM
[12] = second compound 0.316 µM, first compound 0.1 µM
[13] = second compound 1 µM, first compound 0.00316 µM
[14] = second compound 1 µM, first compound 0.01 µM
[15] = second compound 1 µM, first compound 0.0316 µM
[16] = second compound 1 µM, first compound 0.1 µM
[17] = second compound 3.16 µM, first compound 0.00316 µM
[18] = second compound 3.16 µM, first compound 0.01 µM
[19] = second compound 3.16 µM, first compound 0.0316 µM
[20] = second compound 3.16 µM, first compound 0.1 µM
[21] = second compound 10 µM, first compound 0.00316 µM
[22] = second compound 10 µM, first compound 0.01 µM
[23] = second compound 10 µM, first compound 0.0316 µM
[24] = second compound 10 µM, first compound 0.1 µM

## COc1c(OCCCN2CCOCC2)ccc2c3n(c(=NC(=O)c4cnc(N)nc4)nc12)CCN3 + Cc1c(S(C)(=O)=O)c(-c2cc(F)cc(N3CCN(c4ccc(NS(=O)(=O)c5ccc(NC(CCN6CCC(C(=O)OCCCP(=O)(O)O)CC6)CSc6ccccc6)c(S(=O)(=O)C(F)(F)F)c5)cc4)CC3)c2)c(-c2ccc(Cl)cc2)n1C(C)C
Second compound 0.0316 µM
  IC50: 243 nM
Second compound 0.1 µM
  IC50: 225 nM
Second compound 0.316 µM
  IC50: 207 nM
Second compound 1 µM
  IC50: 149 nM
Second compound 3.16 µM
  IC50: 118 nM
Second compound 10 µM
  IC50: 102 nM
[1]
  viability, T/C: 94.3%
[2]
  viability, T/C: 88%
[3]
  viability, T/C: 91.3%
[4]
  viability, T/C: 62.4%
Second compound 0.0316 µM, first compound 0.316 µM
  viability, T/C: 49.3%
Second compound 0.0316 µM, first compound 1 µM
  viability, T/C: 35.9%
[5]
  viability, T/C: 93.2%
[6]
  viability, T/C: 88%
[7]
  viability, T/C: 88.2%
[8]
  viability, T/C: 63.2%
Second compound 0.1 µM, first compound 0.316 µM
  viability, T/C: 45.4%
Second compound 0.1 µM, first compound 1 µM
  viability, T/C: 29.6%
[9]
  viability, T/C: 94.3%
[10]
  viability, T/C: 94.4%
[11]
  viability, T/C: 87.6%
[12]
  viability, T/C: 62.2%
Second compound 0.316 µM, first compound 0.316 µM
  viability, T/C: 43.2%
Second compound 0.316 µM, first compound 1 µM
  viability, T/C: 20.1%
[13]
  viability, T/C: 98.5%
[14]
  viability, T/C: 94.7%
[15]
  viability, T/C: 82.5%
[16]
  viability, T/C: 57.3%
Second compound 1 µM, first compound 0.316 µM
  viability, T/C: 35%
Second compound 1 µM, first compound 1 µM
  viability, T/C: 18.7%
[17]
  viability, T/C: 101%
[18]
  viability, T/C: 84.7%
[19]
  viability, T/C: 77.9%
[20]
  viability, T/C: 52.8%
Second compound 3.16 µM, first compound 0.316 µM
  viability, T/C: 29.2%
Second compound 3.16 µM, first compound 1 µM
  viability, T/C: 10.7%
[21]
  viability, T/C: 96.7%
[22]
  viability, T/C: 90.3%
[23]
  viability, T/C: 74.5%
[24]
  viability, T/C: 48.4%
Second compound 10 µM, first compound 0.316 µM
  viability, T/C: 28.3%
Second compound 10 µM, first compound 1 µM
  viability, T/C: 8.91%

## NC(=O)C(=Cn1cnc(-c2cc(C(F)(F)F)cc(C(F)(F)F)c2)n1)c1cncnc1 + Cc1c(S(C)(=O)=O)c(-c2cc(F)cc(N3CCN(c4ccc(NS(=O)(=O)c5ccc(NC(CCN6CCC(C(=O)OCCCP(=O)(O)O)CC6)CSc6ccccc6)c(S(=O)(=O)C(F)(F)F)c5)cc4)CC3)c2)c(-c2ccc(Cl)cc2)n1C(C)C
Second compound 0.0316 µM
  IC50: > 300 nM
Second compound 0.1 µM
  IC50: > 300 nM
Second compound 0.316 µM
  IC50: 273 nM
Second compound 1 µM
  IC50: 223 nM
Second compound 3.16 µM
  IC50: 163 nM
Second compound 10 µM
  IC50: 149 nM
Second compound 0.0316 µM, first compound 0.000949 µM
  viability, T/C: 105%
Second compound 0.0316 µM, first compound 0.003 µM
  viability, T/C: 102%
Second compound 0.0316 µM, first compound 0.00949 µM
  viability, T/C: 94.4%
Second compound 0.0316 µM, first compound 0.03 µM
  viability, T/C: 97.8%
Second compound 0.0316 µM, first compound 0.0949 µM
  viability, T/C: 105%
Second compound 0.0316 µM, first compound 0.3 µM
  viability, T/C: 55.1%
Second compound 0.1 µM, first compound 0.000949 µM
  viability, T/C: 99.3%
Second compound 0.1 µM, first compound 0.003 µM
  viability, T/C: 112%
Second compound 0.1 µM, first compound 0.00949 µM
  viability, T/C: 113%
Second compound 0.1 µM, first compound 0.03 µM
  viability, T/C: 106%
Second compound 0.1 µM, first compound 0.0949 µM
  viability, T/C: 101%
Second compound 0.1 µM, first compound 0.3 µM
  viability, T/C: 52.5%
Second compound 0.316 µM, first compound 0.000949 µM
  viability, T/C: 102%
Second compound 0.316 µM, first compound 0.003 µM
  viability, T/C: 107%
Second compound 0.316 µM, first compound 0.00949 µM
  viability, T/C: 91.3%
Second compound 0.316 µM, first compound 0.03 µM
  viability, T/C: 97.1%
Second compound 0.316 µM, first compound 0.0949 µM
  viability, T/C: 96.3%
Second compound 0.316 µM, first compound 0.3 µM
  viability, T/C: 45.8%
Second compound 1 µM, first compound 0.000949 µM
  viability, T/C: 99.6%
Second compound 1 µM, first compound 0.003 µM
  viability, T/C: 96.9%
Second compound 1 µM, first compound 0.00949 µM
  viability, T/C: 89.7%
Second compound 1 µM, first compound 0.03 µM
  viability, T/C: 96%
Second compound 1 µM, first compound 0.0949 µM
  viability, T/C: 88.7%
Second compound 1 µM, first compound 0.3 µM
  viability, T/C: 36.6%
Second compound 3.16 µM, first compound 0.000949 µM
  viability, T/C: 101%
Second compound 3.16 µM, first compound 0.003 µM
  viability, T/C: 92.5%
Second compound 3.16 µM, first compound 0.00949 µM
  viability, T/C: 95.5%
Second compound 3.16 µM, first compound 0.03 µM
  viability, T/C: 92.9%
Second compound 3.16 µM, first compound 0.0949 µM
  viability, T/C: 69.4%
Second compound 3.16 µM, first compound 0.3 µM
  viability, T/C: 27.9%
Second compound 10 µM, first compound 0.000949 µM
  viability, T/C: 109%
Second compound 10 µM, first compound 0.003 µM
  viability, T/C: 99.9%
Second compound 10 µM, first compound 0.00949 µM
  viability, T/C: 90%
Second compound 10 µM, first compound 0.03 µM
  viability, T/C: 92.5%
Second compound 10 µM, first compound 0.0949 µM
  viability, T/C: 66.9%
Second compound 10 µM, first compound 0.3 µM
  viability, T/C: 23.1%

## NC1CCC(NC2CC2c2ccccc2)CC1 (stereo unspecified) + Cc1c(S(C)(=O)=O)c(-c2cc(F)cc(N3CCN(c4ccc(NS(=O)(=O)c5ccc(NC(CCN6CCC(C(=O)OCCCP(=O)(O)O)CC6)CSc6ccccc6)c(S(=O)(=O)C(F)(F)F)c5)cc4)CC3)c2)c(-c2ccc(Cl)cc2)n1C(C)C
Second compound 0.0316 µM
  IC50: > 100 nM
Second compound 0.1 µM
  IC50: > 100 nM
Second compound 0.316 µM
  IC50: > 100 nM
Second compound 1 µM
  IC50: > 100 nM
Second compound 3.16 µM
  IC50: > 100 nM
Second compound 10 µM
  IC50: > 100 nM
Second compound 0.0316 µM, first compound 0.000316 µM
  viability, T/C: 111%
Second compound 0.0316 µM, first compound 0.001 µM
  viability, T/C: 101%
[1]
  viability, T/C: 99.3%
[2]
  viability, T/C: 106%
[3]
  viability, T/C: 109%
[4]
  viability, T/C: 119%
Second compound 0.1 µM, first compound 0.000316 µM
  viability, T/C: 114%
Second compound 0.1 µM, first compound 0.001 µM
  viability, T/C: 103%
[5]
  viability, T/C: 105%
[6]
  viability, T/C: 110%
[7]
  viability, T/C: 103%
[8]
  viability, T/C: 112%
Second compound 0.316 µM, first compound 0.000316 µM
  viability, T/C: 99.6%
Second compound 0.316 µM, first compound 0.001 µM
  viability, T/C: 103%
[9]
  viability, T/C: 113%
[10]
  viability, T/C: 101%
[11]
  viability, T/C: 120%
[12]
  viability, T/C: 106%
Second compound 1 µM, first compound 0.000316 µM
  viability, T/C: 97.5%
Second compound 1 µM, first compound 0.001 µM
  viability, T/C: 97.7%
[13]
  viability, T/C: 93.1%
[14]
  viability, T/C: 93.9%
[15]
  viability, T/C: 109%
[16]
  viability, T/C: 114%
Second compound 3.16 µM, first compound 0.000316 µM
  viability, T/C: 103%
Second compound 3.16 µM, first compound 0.001 µM
  viability, T/C: 112%
[17]
  viability, T/C: 98.2%
[18]
  viability, T/C: 104%
[19]
  viability, T/C: 110%
[20]
  viability, T/C: 98.9%
Second compound 10 µM, first compound 0.000316 µM
  viability, T/C: 118%
Second compound 10 µM, first compound 0.001 µM
  viability, T/C: 105%
[21]
  viability, T/C: 101%
[22]
  viability, T/C: 103%
[23]
  viability, T/C: 111%
[24]
  viability, T/C: 108%
